Experimental data as given in patent US20200369728A1, “PEPTIDOMIMETIC MACROCYCLES AND USES THEREOF” (Aileron Therapeutics, Inc., priority 2015, published 2020).
Bridge positions count the residues as written; N and C are the ends. Square brackets hold non-standard residues; d marks the D form. Peptide text beside a SMILES is read from it. Phe(4-COOH) = N[C@@H](Cc1ccc(C(=O)O)cc1)C(=O)O; 2Nal = N[C@@H](Cc1ccc2ccccc2c1)C(=O)O; R8 = C=CCCCCCC[C@@](C)(N)C(=O)O; Cba = N[C@@H](CC1CCC1)C(=O)O; S5 = C=CCCC[C@](C)(N)C(=O)O; Nle = CCCC[C@H](N)C(=O)O

Key:
Caspase 3 = Caspase 3 detection assay in SJSA1 cells; type: cell-based; conditions: SJSA1, 48 h, Caspase 3 activation over DMSO-treated cells
SJSA-1 cells = assay: Cell lysis by peptidomimetic macrocycles (LDH release); type: cell-based; conditions: SJSA-1, 1 h
Method in brief: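 Membrane lysis measured as supernatant LDH after a 1 h, 37 °C exposure of SJSA-1 cells, held in RPMI with 1% FBS, to macrocycles at final 6.25-50 μM with 0.5% DMSO. Lytic references were 10 μM melittin and 1% Triton X-100; DMSO alone served as non-lytic control.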

| Compound | caspase 0.3 μM (Caspase 3) | caspase 3 μM (Caspase 3) | caspase 10 μM (Caspase 3) | caspase 30 μM (Caspase 3) | 6.25 μM % Lysed cells (1 h LDH) (SJSA-1 cells) [%] | 25 μM % Lysed cells (1 h LDH) (SJSA-1 cells) [%] | 50 μM % Lysed cells (1 h LDH) (SJSA-1 cells) [%] | caspase 1 μM (Caspase 3) |
| --- | --- | --- | --- | --- | --- | --- | --- | --- |
| CCCC[C@H](NC(=O)[C@H](C)NC(=O)[C@H](CO)NC(=O)[C@]1(C)CCCC=CCCCCCC[C@@](C)(NC(=O)[C@H](Cc2ccccc2)NC(=O)[C@@H](NC(=O)[C@H](CC(C)C)NC(C)=O)[C@@H](C)O)C(=O)N[C@@H](CCC(=O)O)C(=O)N[C@@H](Cc2ccc(C(=O)O)cc2)C(=O)N[C@@H](Cc2c[nH]c3ccccc23)C(=O)N[C@@H](C)C(=O)N[C@@H](CCC(N)=O)C(=O)N[C@@H](CC2CCC2)C(=O)N1)C(=O)N[C@@H](C)C(N)=O [compound 244] (Ac-LTF[R8]E[Phe(4-COOH)]WAQ[Cba][S5]SA[Nle]A-NH2; staple 4-11) | 1 | 2 | 7 | 17 | 0 | 0 | 4 |  |
| CCCC[C@H](NC(=O)[C@H](C)NC(=O)[C@H](C)NC(=O)[C@]1(C)CCCC=CCCCCCC[C@@](C)(NC(=O)[C@H](Cc2ccccc2)NC(=O)[C@@H](NC(=O)[C@H](CCC(=O)O)NC(C)=O)[C@@H](C)O)C(=O)N[C@@H](C)C(=O)N[C@@H](Cc2ccc(O)cc2)C(=O)N[C@@H](Cc2c[nH]c3ccccc23)C(=O)N[C@@H](C)C(=O)N[C@@H](CCC(N)=O)C(=O)N[C@@H](CC2CCC2)C(=O)N1)C(=O)N[C@@H](C)C(N)=O [compound 237] (Ac-ETF[R8]AYWAQ[Cba][S5]AA[Nle]A-NH2; staple 4-11) | 1 | 5 | 9 | 15 | 0 | 7 | 55 |  |
| CCCC[C@H](NC(=O)[C@H](C)NC(=O)[C@H](CO)NC(=O)[C@]1(C)CCCC=CCCCCCC[C@@](C)(NC(=O)[C@H](Cc2ccccc2)NC(=O)[C@@H](NC(=O)[C@H](CC(C)C)NC(C)=O)[C@@H](C)O)C(=O)N[C@@H](CCC(=O)O)C(=O)N[C@@H](Cc2ccc(O)cc2)C(=O)N[C@@H](Cc2c[nH]c3ccccc23)C(=O)N[C@@H](CO)C(=O)N[C@@H](CCC(N)=O)C(=O)N[C@@H](CC2CCC2)C(=O)N1)C(=O)N[C@@H](C)C(N)=O [compound 245] (Ac-LTF[R8]EYWSQ[Cba][S5]SA[Nle]A-NH2; staple 4-11) | 1 | 3 | 9 | 16 | 1 | 11 | 56 |  |
| CC(=O)N[C@@H](CC(C)C)C(=O)N[C@H](C(=O)N[C@@H](Cc1ccccc1)C(=O)N[C@]1(C)CCCCCCC=CCCC[C@@](C)(C(=O)N[C@@H](CO)C(=O)N[C@@H](C)C(=O)N[C@@H](CO)C(N)=O)NC(=O)[C@H](CC(C)C)NC(=O)[C@H](CCC(N)=O)NC(=O)[C@H](C)NC(=O)[C@H](Cc2c[nH]c3ccccc23)NC(=O)[C@H](Cc2ccc(O)cc2)NC(=O)[C@H](C(C)C)NC1=O)[C@@H](C)O (single isomer, unassigned) [compound 144] | 1 | 4 | 10 | 16 | 1 | −1 | 2 |  |
| CCCC[C@H](NC(=O)[C@H](C)NC(=O)[C@H](C)NC(=O)[C@]1(C)CCCC=CCCCCCC[C@@](C)(NC(=O)[C@H](Cc2ccccc2)NC(=O)[C@@H](NC(=O)[C@H](CC(C)C)NC(C)=O)[C@@H](C)O)C(=O)N[C@@H](C)C(=O)N[C@@H](Cc2ccc(O)cc2)C(=O)N[C@@H](Cc2c[nH]c3ccccc23)C(=O)N[C@@H](C)C(=O)N[C@@H](C)C(=O)N[C@@H](CC(C)C)C(=O)N1)C(=O)N[C@@H](C(N)=O)C(C)C (single isomer, unassigned) [compound 80] | 1 | 2 | 13 | 20 | 0 | 1 | 5 |  |
| CC(=O)N[C@@H](CC(C)C)C(=O)N[C@H](C(=O)N[C@@H](Cc1ccccc1)C(=O)N[C@]1(C)CCCCCCC=CCCC[C@@](C)(C(=O)N[C@@H](CO)C(=O)N[C@@H](C)C(=O)N[C@@H](C)C(N)=O)NC(=O)[C@H](CC2CCC2)NC(=O)[C@H](CCC(N)=O)NC(=O)[C@H](C)NC(=O)[C@H](Cc2ccc3ccccc3c2)NC(=O)[C@H](Cc2ccc(O)cc2)NC(=O)[C@H](CCC(=O)O)NC1=O)[C@@H](C)O [compound 254] (Ac-LTF[R8]EY[2Nal]AQ[Cba][S5]SAA-NH2; staple 4-11) | 1 | 7 | 14 | 22 | 11 | 60 | 75 | 3 |
| CC(=O)N[C@@H](CC(C)C)C(=O)N[C@H](C(=O)N[C@@H](Cc1ccccc1)C(=O)N[C@]1(C)CCCCCCC=CCCC[C@@](C)(C(=O)N[C@@H](C)C(=O)N[C@@H](C)C(=O)N[C@@H](C)C(=O)N[C@@H](C)C(=O)N[C@@H](C)C(=O)N[C@H](C)C(N)=O)NC(=O)[C@H](CC2CCC2)NC(=O)[C@H](CCC(N)=O)NC(=O)[C@H](C)NC(=O)[C@H](Cc2c[nH]c3ccccc23)NC(=O)[C@H](Cc2ccc(O)cc2)NC(=O)[C@H](CCC(=O)O)NC1=O)[C@@H](C)O (single isomer, unassigned) [compound 347] | 2 | 5 | 8 | 29 | 0 | 0 | 0 | 3 |
| CC[C@H](C)[C@H](NC(=O)[C@H](C)NC(=O)[C@H](CO)NC(=O)[C@]1(C)CCCC=CCCCCCC[C@@](C)(NC(=O)[C@H](Cc2ccccc2)NC(=O)[C@@H](NC(=O)[C@H](CC(C)C)NC(C)=O)[C@@H](C)O)C(=O)N[C@@H](C)C(=O)N[C@@H](Cc2ccc(O)cc2)C(=O)N[C@@H](Cc2c[nH]c3ccccc23)C(=O)N[C@@H](C)C(=O)N[C@@H](CCC(N)=O)C(=O)N[C@@H](CC(C)C)C(=O)N1)C(N)=O [compound 8] (Ac-LTF[R8]AYWAQL[S5]SAI-NH2; staple 4-11) |  | 1 | 19 | 25 | −1 | 1 | 1 |  |
| CC(=O)N[C@@H](CC(C)C)C(=O)N[C@H](C(=O)N[C@@H](Cc1ccccc1)C(=O)N[C@]1(C)CCCCCCC=CCCC[C@@](C)(C(=O)N[C@@H](C)C(=O)N[C@@H](C)C(=O)N[C@@H](C)C(=O)N[C@@H](C)C(=O)N[C@@H](C)C(=O)N[C@@H](C)C(=O)N[C@H](C)C(N)=O)NC(=O)[C@H](CC(C)C)NC(=O)[C@H](CCC(N)=O)NC(=O)[C@H](C)NC(=O)[C@H](Cc2c[nH]c3ccccc23)NC(=O)[C@H](Cc2ccc(O)cc2)NC(=O)[C@H](CCC(=O)O)NC1=O)[C@@H](C)O (single isomer, unassigned) [compound 343] | 1 | 2 | 5 | 29 | 0 | 0 | 0 | 1 |
| CC(=O)N[C@@H](CC(C)C)C(=O)N[C@H](C(=O)N[C@@H](Cc1ccccc1)C(=O)N[C@]1(C)CCCCCCC=CCCC[C@@](C)(C(=O)N[C@@H](C)C(=O)N[C@@H](C)C(=O)N[C@@H](C)C(=O)N[C@@H](C)C(=O)N[C@@H](C)C(=O)N[C@@H](C)C(=O)N[C@H](C)C(N)=O)NC(=O)[C@H](CC(C)C)NC(=O)[C@H](CCC(N)=O)NC(=O)[C@H](C)NC(=O)[C@H](Cc2c[nH]c3ccccc23)NC(=O)[C@H](Cc2ccc(O)cc2)NC(=O)[C@H](C)NC1=O)[C@@H](C)O (single isomer, unassigned) [compound 317] | 3 | 9 | 26 | 35 | 0 | 0 | 0 | 4 |
